Patent publication US20110306641A1, “NOVEL 2,6-SUBSTITUTED-3-NITROPYRIDINE DERIVATIVE, METHOD FOR PREPARING SAME, AND PHARMACEUTICAL PREPARATION INCLUDING SAME” (priority 2008, published 2011)

Key:
Calvarial cell [1] = assay: Cytotoxicity test (MTT) in osteoblasts (calvarial cells); conditions: 1 μM, 72 hours, vs vehicle control
Experimental: Drugs were diluted to a concentration of 2 μM in α-MEM culture media supplemented with 10% FBS. The vehicle control group was established to contain 0.2% DMSO. 100 μL/well of the diluted drugs were dispensed into 96-well plates to which osteoblasts (calvarial cells) prepared in Experimental Example 1 were then added at a density of 1.0×10^4 cells/100 μL/well. Here, the final compound concentration in the cell culture was 1 μM, and the vehicle control group contained 0.1% DMSO. The cells were cultured in a 5% CO2 inhibitorr at 37° for 72 hours. 25 μL of 3-(4,5-dimethyl-2-thiazolyl)-2,5-diphenyl-2H-tetrazolium bromide (MTT) dissolved in PBS (2 mg/mL) was added to each cell culture 4 hours before the end of culture. After completion of the reaction, the plates were centrifuged, the media were discarded, and 100 μL of formazan was added and dissolved in dimethyl sulfoxide (DMSO). Finally, the absorbance of the developed plates was measured at 540 nm. The cell viability was expressed as % concentration in comparison with the vehicle control group.

[2] = test system: osteoclastogenesis (formation of multinucleated osteoclasts); assay: Osteoclastogenesis inhibition via co-culture system (bone marrow cells + osteoblasts, TRAP staining); assay type: cell-based, mouse; conditions: 7 days co-culture, vs vehicle control; for inhibition at 1 µM: Mus musculus, Osteoclast, 168 h; for Osteoclastogenesis inhibition (%): 1 μM
Experimental: Osteoclastogenesis inhibitory effects of the compounds of the present invention were evaluated via a co-culture system (Reference: Endocrinology 137(1996), 2187 to 2190, E. Jimi et al.). A specific experimental method is as follows.
1) Preparation of Bone Marrow Cells and Osteoblasts
Femur and tibia were aseptically dissected from 6 to 8-week-old male ddY mice to harvest bone marrow cells by a conventional method using a syringe. In brief, tissues were removed from the dissected bone, the bone ends were cut off with scissors, and the bone marrow was isolated by pushing a medium-containing syringe (23G) against the one end of the cut bone. The isolated bone marrow was subjected to repeated piston movement of a syringe such that single cells were obtained (Reference: Endocrinology 123(1988), 2600 to 2602, Takahashi et al.). After removal of red blood cells within the bone marrow, the bone marrow cells recovered by centrifugation were placed in an α-MEM supplemented with 10% fetal bovine serum (FBS), followed by counting of nucleated cells and then were immediately used for a co-culture system.
For the preparation of osteoblasts (Calvarial cells), the cranial bone were aseptically dissected from 1 to 2-day-old neonatal ICR mice and subjected to continuous reaction with a 0.2% collagenase solution to separate osteoblasts. The cell-suspended supernatant was centrifuged to recover osteoblasts which were grown to full confluence in an α-MEM supplemented with 10% FBS and then diluted to a desired cell density for use in the experiment.
2) Osteoclastogenesis Inhibition Experiment Via Co-Culture System
As the medium used for a co-culture system, a differentiation medium with the addition of differentiation factors 1α,25-dihydroxyvitamin D3 (10^−8M) and dexamethasone (10^−8M) to α-MEM supplemented with 10% FBS was used for the induction of osteoclastogenesis. First, the compounds of the present invention dissolved in dimethyl sulfoxide (DMSO) at a concentration of 1 mM were diluted to 2 μM using the above-mentioned differentiation medium. As a vehicle control group, 0.2% (v/v) DMSO was added to the medium. 100 μL/well of each medium was added to 96-well plates. In addition, the above prepared bone marrow cells and osteoblasts were plated onto 96-well plates at a density of 1×10^5 cells/50 μL/well and 3×10^3 cells/50 μL/well, respectively. The total volume/well was 200 μL and the final compound concentration was 1 μM. The control group was 0.1% (v/v) DMSO. The cells were cultured with exchange of the culture media with fresh media containing differentiation factors and test materials (materials containing the compounds of the present invention) at an interval of 2 to 3 days.
7 days after culturing of cells, the formation of multinucleated osteoclasts was confirmed by microscopic examination, the medium was removed from the wells and then the cells were fixed in a 10% phosphate-buffered formalin solution. The degree of formation of mature osteoclasts was measured taking advantage of the characteristics of osteoclasts showing a positive reaction to a tartrate-resistant acid phosphatase (TRAP) staining solution. The TRAP staining solution was prepared in a manner such that naphthol AS-MS phosphate as a substrate and a coloring agent (Fast Red Violet LB salt) were dissolved in N,N-dimethylformamide, and a 0.1N NaHCO3 buffer solution containing 50 mM of tartaric acid was added thereto. Among the TRAP-positive cells under a light microscope, multinucleated osteoclasts having 6 to 7 nuclei were regarded as mature osteoclasts.
The degree of inhibition of osteoclastogenesis was calculated according to the following equation 1. The results are summarized in Table 2 below (Experiments were carried out for 4 wells/experimental group (n=4), and the results are given in terms of mean±standard deviation) […]

MC3T3-E1 cell = assay: Alkaline phosphatase (ALP) activity in MC3T3-E1 cells; assay type: cell-based; conditions: 3 days; for activity at 1 µM: Mus musculus, 72 h, read-out: ALP activity (1 μM, % of Control) MC3T3-E1 cell
Experimental: (§1) Differentiation and activity of osteoblasts were indirectly evaluated by measuring an ALP activity having a close relationship with osteogenesis.
(§2) Osteoblasts (Calvarial cells) prepared in Experimental Example 1 and MC3T3-E1 cells (available from RIKEN Cell Bank, Japan) were collected in α-MEM supplemented with 10% FBS, followed by cell counting. The cells were dispensed into 24-well cultureware at a density of 2×10^4 cells/well. After culturing of the cells for 24 hours, the culture media were discarded and replaced with fresh media in which test compounds were diluted to a concentration of 1 μM (1 mL/well). In addition, the vehicle control group containing 0.1% DMSO was also treated. Under the conditions where the compounds were treated, the cells were cultured in a 5% CO2 […] at 37° for 3 days. When the experiment was terminated, the supernatant was removed and the cells were washed three times with cold phosphate buffer at 4°. 0.2% Triton X-100 was added to the washed cells which were then subjected to three cycles of freezing at −70° and thawing at room temperature for the complete lysis of cells. The cell extracts were pooled and centrifuged to collect the cell supernatant which was used for the measurement of ALP activity and proteins. The protein concentration was measured using a BCA assay kit (manufactured by Sigma-Aldrich). For the measurement of ALP activity, p-nitrophenylphosphate was added to the cell supernatant which was then incubated at 37° for 30 minutes, and the reaction was terminated with the addition of 50 μL of 0.2N sodium hydroxide. The standard curve was plotted at the absorbance of 405 nm using p-nitrophenol as a standard material and then the absorbance of test materials thus reacted was measured to determine the production amount of p-nitrophenol.
(§3) The ALP activity was calculated by dividing the amount of p-nitrophenol produced from each test material by the protein amount and the reaction time. Therefore, the unit of ALP activity was given in terms of p-nitrophenol/μg protein/min. The results are given in Table 3 where the ALP activity unit of each test material was given in terms of % change through the comparison between the individual test materials and the vehicle control group.

Calvarial cell [3] = assay: Alkaline phosphatase (ALP) activity in osteoblasts (Calvarial cells); assay type: cell-based, mouse; conditions: 3 days; for activity at 1 µM: Mus musculus, 72 h, read-out: ALP activity (1 μM, % of Control) Calvarial cell
Experimental: as §1, §2, §3

Compound | Cell viability (%) Calvarial cell (Calvarial cell [1]) [%] | inhibition at 1 µM [2] [%] | activity at 1 µM (MC3T3-E1 cell) [%] | activity at 1 µM (Calvarial cell [3]) [%] | Osteoclastogenesis inhibition (%) [2] [%] | ALP activity (1 μM, % of Control) MC3T3-E1 cell (MC3T3-E1 cell) | ALP activity (1 μM, % of Control) Calvarial cell (Calvarial cell [3])
CC(C)Nc1ccc([N+](=O)[O-])c(Nc2ccc3[nH]ncc3c2)n1 [Compound 6, 2-(1H-indazol-5-yl)amino-6-(isopropylamino)-3-nitropyridine] | 97 | 100 | 207 | 188 | – | – | –
CCN(CCO)c1ccc([N+](=O)[O-])c(Nc2ccc3[nH]ncc3c2)n1 [Compound 11, 2-(1H-indazol-5-yl)amino-6-[(N-ethyl-2-hydroxyethyl)amino]-3-nitropyridine] | 105 | – | – | – | 98 | 140 % of Control | 143 % of Control
CN(C)CC(C)(C)CNc1ccc([N+](=O)[O-])c(Nc2ccc3[nH]ncc3c2)n1 [Compound 16, 2-(1H-indazol-5-yl)amino-6-[(3-dimethylamino-2,2-dimethyl)-propylamino]-3-nitropyridine] | 104 | – | – | – | 89 | 144 % of Control | 123 % of Control
CC(C)(C)Nc1ccc([N+](=O)[O-])c(Nc2ccc3[nH]ncc3c2)n1 [Compound 12, 2-(1H-indazol-5-yl)amino-6-(t-butylamino)-3-nitropyridine] | 109 | 99 | 136 | 152 | – | – | –
CNc1ccc([N+](=O)[O-])c(Nc2ccc3[nH]ncc3c2)n1 [Compound 5, 2-(1H-indazol-5-yl)amino-6-(methylamino)-3-nitropyridine] | 112 | 89 | 206 | 193 | – | – | –
CC(C)c1nccn1-c1ccc([N+](=O)[O-])c(Nc2ccc3[nH]ncc3c2)n1 [Compound 3, 2-(1H-indazol-5-yl)amino-6-(2-isopropylimidazol-1-yl)-3-nitropyridine] | 118 | 95 | 172 | 148 | – | – | –
CN(CC1OCCO1)c1ccc([N+](=O)[O-])c(Nc2ccc3[nH]ncc3c2)n1 [Compound 17, 2-(1H-indazol-5-yl)amino-6-[(N-[1,3]-dioxolan-2-ylmethyl)-methylamino]-3-nitropyridine] | 89 | – | – | – | 92 | 188 % of Control | 139 % of Control
